Assays:
Bcl-2 protein = test: Western blot of Bcl-2 in heart tissue of high-fat diet mice; type: in vivo, C57BL/6 mice; conditions: groups 3 to 5 (5, 10, 25 mg/kg/day intraperitoneally) in comparison of group 2 (high-fat diet, saline)
Protocol: (§1) The male C57BL/6 mice at the age of 6 weeks were divided into 5 groups for 8 mice in each group. […]
(§2) Protein concentration of the extract was determined by Lowry's protein assay method. […]
(§3) The protein extraction of the mice heart tissues from the each group in example 2 were processed by the western blot method in example 3 to observe the expressions of related apoptosis regulatory proteins in the mice heart tissues from the each group. The results were shown at FIGS. 2 and 3, wherein the tubulin was used for an internal control in FIG. 2 and the expression levels of related apoptosis regulatory proteins were calculated basing on the expression level of tubulin in each figure of FIG. 3.

cytochrome C = test: Western blot of cytochrome C in heart tissue of high-fat diet mice; type: in vivo, C57BL/6 mice; conditions: groups 3 to 5 (5, 10, 25 mg/kg/day intraperitoneally) in comparison of group 2
Protocol: as §1, §2, §3

caspase-3 = test: Western blot of activated caspase-3 in heart tissue of high-fat diet mice; type: in vivo, C57BL/6 mice; conditions: groups 3 to 5 (5, 10, 25 mg/kg/day intraperitoneally) in comparison of group 2
Protocol: as §1, §2, §3

[1] = test system: nuclear factor of activated T-cells C3 (NFTA-C3); test: Western blot of NFTA-C3 in heart tissue of high-fat diet mice; type: in vivo, C57BL/6 mice; conditions: groups 3 to 5 (5, 10, 25 mg/kg/day intraperitoneally) in comparison of group 2
Protocol: as §1, §2
(§4) The protein extraction of the mice heart tissues from the each group in example 2 were processed by the western blot method in example 3 to observe the expressions of nuclear factor of activated T-cells C3 (NFTA-C3) and calcineurin in the mice heart tissues from the each group. The results were shown at FIGS. 4 and 5, wherein the tubulin was used for an internal control in FIG. 4 and the expression levels of NFTA-C3 and calcineurin were calculated basing on the expression level of tubulin in each figure of FIG. 5.

calcineurin = test: Western blot of calcineurin in heart tissue of high-fat diet mice; type: in vivo, C57BL/6 mice; conditions: groups 3 to 5 (5, 10, 25 mg/kg/day intraperitoneally) in comparison of group 2
Protocol: as §1, §2, §4

[2] = test system: STAT-3, IL-6, MEK-5 and ERK-5; test: Western blot of related signal transduction proteins of heart hypertrophy in heart tissue of high-fat diet mice; type: in vivo, C57BL/6 mice; conditions: STAT-3, IL-6, MEK-5, ERK-5, groups 3 to 5 (5, 10, 25 mg/kg/day intraperitoneally) versus group 2
Protocol: as §1, §2
The protein extraction of the mice heart tissues from the each group in example 2 were processed by the western blot method in example 3 to observe the expressions of the related signal transduction proteins of heart hypertrophy including: STAT-3, IL-6, MEK-5 and ERK-5. The results were shown at FIGS. 6 and 7, wherein the tubulin was used for an internal control in FIG. 6 and the expression levels of the related signal transduction proteins of heart hypertrophy in the mice heart tissues from each group was calculated basing on the expression level of tubulin in FIG. 7.

p38α protein = test: Western blot of p38α protein in heart tissue of high-fat diet mice; type: in vivo, C57BL/6 mice; conditions: groups 3 to 5 (5, 10, 25 mg/kg/day intraperitoneally) versus group 2
Protocol: (§5) The male C57BL/6 mice at the age of 6 weeks were divided into 5 groups for 8 mice in each group. The each group of mice were feed at 24±2° C. of temperature, humidity of 55±10% and 12/12 light cycle for 8 weeks, wherein the group 1 was control group on a normal diet (PMI Nutrition International, Brentwood, Mo., USA) and injected 0.9% saline intraperitoneally; the group 2 was fed high-fat diet to induce the mice into heart hypertrophy model and injected 0.9% saline intraperitoneally; the group 3 was fed high-fat diet and the peptide of SEQ ID NO.:1 was injected intraperitoneally with the dose of 5 mg/kg/day; the group 4 was fed high-fat diet and the peptide of SEQ ID NO.:1 was injected intraperitoneally with the dose of 10 mg/kg/day; the group 5 was fed high-fat diet and the peptide of SEQ ID NO.:1 was injected intraperitoneally with the dose of 25 mg/kg/day. […]
as §2
(§6) The protein extraction of the mice heart tissues from the each group in example 2 were processed by the western blot method in example 3 to observe the expressions of p38α protein and JNK. The results were shown at FIGS. 8 and 9, wherein the tubulin was used for an internal control in FIG. 8 and the expression levels of p38α protein and JNK were calculated basing on the expression level of tubulin in each figure of FIG. 9.

JNK = test: Western blot of JNK in heart tissue of high-fat diet mice; type: in vivo, C57BL/6 mice; conditions: groups 3 to 5 (5, 10, 25 mg/kg/day intraperitoneally) versus group 2
Protocol: as §5, §2, §6

[3] = test system: FGF-2, ERK-1, UPA, MMP-2 and MMP-9; test: Western blot of related proteins of cardiac fibrosis pathway in heart tissue of high-fat diet mice; type: in vivo, C57BL/6 mice; conditions: MMP-2, MMP-9, groups 3 to 5 (5, 10, 25 mg/kg/day intraperitoneally) versus group 2
Protocol: as §1, §2
The protein extraction of the mice heart tissues from the each group in example 2 were processed by the western blot method in example 3 to observe the expressions of the related proteins of cardiac fibrosis pathway including: FGF-2, ERK-1, UPA, MMP-2 and MMP-9. The results were shown at FIGS. 10 and 11, wherein the tubulin was used for an internal control in FIG. 10 and the expression levels of FGF-2, ERK-1, UPA, MMP-2 and MMP-9 in the mice heart tissues from the each group was calculated basing on the expression level of tubulin in each figures of FIG. 11.

ANP = test: Western blot of ANP in heart tissue of high-fat diet mice; type: in vivo, C57BL/6 mice; conditions: groups 3 to 5 (5, 10, 25 mg/kg/day intraperitoneally) in comparison of group 2
Protocol: as §1, §2
(§7) The protein extraction of the mice heart tissues from the each group in example 2 were processed by the western blot method in example 3 to observe the expressions of the indicator of heart hypertrophy and heart failure. The results were shown at FIGS. 12 and 13, wherein the tubulin was used for an internal control in FIG. 12 and the expression levels of the ANP and BNP in the mice heart tissues from the each group was calculated basing on the expression level of tubulin in each figures of FIG. 13.

BNP = test: Western blot of BNP in heart tissue of high-fat diet mice; type: in vivo, C57BL/6 mice; conditions: groups 3 to 5 (5, 10, 25 mg/kg/day intraperitoneally) in comparison of group 2
Protocol: as §1, §2, §7

myocardial cells = test: H&E stained section of heart tissues of high-fat diet mice; type: in vivo; conditions: groups 3 and 4 (15 and 25 mg/kg/day intraperitoneally) in comparison with group 2
Protocol: The male C57BL/6 mice at the age of 6 weeks were divided into 5 groups for 8 mice in each group. The each group of mice were feed at 24±2° C. of temperature, humidity of 55±10% and 12/12 light cycle for 8 weeks, wherein the group 1 was control group on a normal diet (PMI Nutrition International, Brentwood, Mo., USA) and injected 0.9% saline intraperitoneally; the group 2 was fed high-fat diet to induce the mice into heart hypertrophy model and injected 0.9% saline intraperitoneally; the group 3 was fed high-fat diet and the peptide of SEQ ID NO.:1 was injected intraperitoneally with the dose of 5 mg/kg/day; the group 4 was fed high-fat diet and the peptide of SEQ ID NO.:1 was injected intraperitoneally with the dose of 10 mg/kg/day; the group 5 was fed high-fat diet and the peptide of SEQ ID NO.:1 was injected intraperitoneally with the dose of 25 mg/kg/day. The injection period of each group of mice was between the third week to the sixth week of feeding period. The high-fat diet contained 60% of energy as fat.
The feeding method was the same with example 1. Mice were divided into 4 groups for feeding at different conditions. The intraperitoneal injection was performed between the third week and the sixth week of the feeding period. […]

Substance: SEQ ID NO.: 1: isolated peptide which amino acid sequence is SEQ ID NO.: 1; extracted from organisms, separated by hydrolysis or chemical synthesis (VHVV)
- expression levels of Bcl-2 in the heart cell (Bcl-2 protein): obviously increased
- expression levels of cytochrome C in the heart cell (cytochrome C): obviously decreased
- expression levels of activated caspase-3 in the heart cell (caspase-3): obviously decreased
- expression levels of NFTA-C3 in the heart cells [1]: obviously decreased
- expression levels of calcineurin in the heart cells (calcineurin): obviously decreased
- expression levels of the related signal transduction proteins of heart hypertrophy in the heart tissues [2]: obviously lower
- expression levels of p38α protein in the heart cells (p38α protein): significantly lower
- expression levels of JNK in the heart cells (JNK): significantly lower
- related proteins of cardiac fibrosis pathway in mice heart tissues [3]: obviously lower
- expression levels of ANP in the heart tissues (ANP): obviously decreased
- expression levels of BNP in the heart tissues (BNP): obviously decreased
- arrangement of myocardial cells (H&E stained heart sections) (myocardial cells): more orderly and closely

— patent publication US20160304557A1, “Method for preventing or treating heart diseases by using a composition containing an isolated peptide” (Tunghai University, priority 2014, published 2016)
